The results in this text go back to patent publication US10640495B2, “Heterocycle derivatives having TrkA inhibitory activity” (Shionogi & Co., Ltd., priority 2015, dated 2020).

Chain of human TrkA (P04629 440-796): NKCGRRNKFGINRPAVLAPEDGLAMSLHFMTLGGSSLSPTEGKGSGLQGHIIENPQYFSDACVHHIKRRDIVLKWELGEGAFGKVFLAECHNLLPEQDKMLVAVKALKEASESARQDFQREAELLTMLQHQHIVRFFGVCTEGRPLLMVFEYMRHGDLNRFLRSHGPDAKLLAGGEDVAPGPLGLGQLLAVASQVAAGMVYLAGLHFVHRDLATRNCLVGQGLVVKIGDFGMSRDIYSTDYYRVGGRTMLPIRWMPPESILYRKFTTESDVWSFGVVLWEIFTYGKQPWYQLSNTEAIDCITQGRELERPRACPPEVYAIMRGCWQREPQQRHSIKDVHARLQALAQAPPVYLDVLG

In the first assay the target is human TrkA (Homo sapiens (Human), UniProt P04629). Briefly: Human TrkA inhibition assay (Test Example 2). It is filed as biochemical. As to conditions: Table 152, human TrkA inhibition; read-out: IC50_nM. The method in brief:
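Mobility-shift readout of phosphorylated versus unphosphorylated fluorescent peptide gave conversion ratio, normalized to DMSO and no-enzyme wells; IC50 by logistic fit of 10- or 15-point 3-fold dilutions. Conditions: 1 nmol/L enzyme, 15 min compound preincubation, then 500 μmol/L ATP plus 1.5 μmol/L peptide, 120 min, 37 °C.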
As to `COCCC1C[C@@H](NC(=O)Nc2c(C)c(C3=CCNCC3)nn2-c2ccccc2)[C@H](c2ccccc2)O1` (stereo partly drawn) [Compound I-21], the IC50 was < 100 nM.

Still in this assay, the particulars now being: Table 153, human TrkA inhibition; read-out: IC50.
Take `COCC[C@@H]1C[C@@H](NC(=O)Nc2c(C)c(-c3cnc4c(cnn4C)c3)nn2-c2ccccc2)[C@H](c2ccc(F)c(F)c2)O1` (racemic) [Compound I-99]: the IC50 is < 100 nM.

In the case of `COCCN1C[C@@H](NC(=O)Nc2c(C)c(-c3cc(CO)c(=O)n(C)c3)nn2-c2ccccc2)[C@H](c2ccc(F)c(F)c2)O1` (racemic) [Compound I-125], the IC50 is < 100 nM.

`COCCN1C[C@@H](NC(=O)Nc2c(C)c(-c3cnc4c(c3)ncn4C)nn2-c2ccccc2)[C@H](c2ccnc(F)c2)O1` (racemic) [Compound I-164]: the IC50 is < 100 nM.

Turning to `CNC(=O)c1cc(-c2nn(-c3ccccc3)c(NC(=O)N[C@@H]3CN(CCOC)O[C@H]3c3ccc(F)cc3)c2C)cn(C)c1=O` (racemic) [Compound I-138], the IC50 was < 100 nM.

For the compound `COCCN1C[C@@H](NC(=O)Nc2c(C)c(-c3cnc4c(c3)ncn4C)nn2-c2ccccc2)[C@H](c2ccccc2)O1` (racemic) [Compound I-161], the IC50 was < 100 nM.

The assay is the same for the next values; noted with them: Table 154, human TrkA inhibition; read-out: IC50.
On to `COCCN1C[C@@H](NC(=O)Nc2c(C)c(-c3ccnc(C(=O)NOC)c3)nn2-c2ccccc2)[C@H](c2ccc(F)c(F)c2)O1` (racemic) [Compound I-198], for which the IC50 was < 100 nM.

The assay is the same for the next values; noted with them: Table 155, human TrkA inhibition; read-out: IC50.
For `COCCN1C[C@@H](NC(=O)Nc2c(C)c(-c3cnc(OC)c(OC)c3)nn2-c2ccccc2)[C@H](c2cnc(F)c(F)c2)O1` (racemic) [Compound I-429], the IC50 was < 100 nM.

For the compound `CNC(=O)c1nn(-c2ccccc2)c(NC(=O)N[C@@H]2CN(CCOC)O[C@H]2c2ccnc(F)c2)c1C` (racemic) [Compound I-384], the IC50 was < 100 nM.

Consider `COCCN1C[C@@H](NC(=O)Nc2c(C)c(OCC3COC3)nn2-c2ccccc2)[C@H](c2ccnc(F)c2)O1` (racemic) [Compound I-503], for which the IC50 was < 100 nM.

As for `COCCN1C[C@@H](NC(=O)Nc2c(C)c(-c3cnc(OC4CCOCC4)nc3)nn2-c2ccccc2)[C@H](c2ccnc(F)c2)O1` (racemic) [Compound I-443], the IC50 was < 100 nM.

For the compound `COCCN1C[C@@H](NC(=O)Nc2c(C)c(-c3ccc(N4CCN(CC#N)CC4)nc3)nn2-c2ccccc2)[C@H](c2ccnc(F)c2)O1` (racemic) [Compound I-375], the IC50 was < 100 nM.

Staying with this assay, now noted: Table 156, human TrkA inhibition; read-out: IC50.
Turning to `CC(=O)N1CCC(COc2nn(-c3ccccc3)c(NC(=O)N[C@@H]3CN(CCF)O[C@H]3c3ccc(F)c(F)c3)c2C)CC1` (racemic) [Compound I-564], the IC50 was < 100 nM.

Consider `CCOc1nn(-c2ccccc2)c(NC(=O)N[C@@H]2CN(CC)O[C@H]2c2ccc(F)c(F)c2)c1C` (racemic) [Compound I-542], for which the IC50 is < 100 nM.

The same assay, now with this note: Table 157, human TrkA inhibition; read-out: IC50.
Take `COCCN1C[C@@H](NC(=O)Nc2c(C)c(-c3cnc(N(C)CCCN(C)C)nc3)nn2-c2ccccc2)[C@H](c2ccnc(F)c2)O1` (racemic) [Compound I-589]: the IC50 is < 100 nM.

Turning to `COCCN1C[C@@H](NC(=O)Nc2c(C)c(-c3cnc(N4CCN(C)[C@@H](C)C4)nc3)nn2-c2ccccc2)[C@H](c2ccnc(F)c2)O1` [Compound I-593], the IC50 is < 100 nM.

As for `COCCN1C[C@@H](NC(=O)Nc2c(C)c(OC3CCN(C(=O)OC(C)(C)C)CC3)nn2-c2ccccc2)[C@H](c2ccc(F)c(F)c2)O1` [Compound I-601], the IC50 is < 100 nM.

The same assay, now with this note: human TrkA 1 nmol/L, ATP 500 μmol/L, 120 min at 37° C.; read-out: IC50 values (TrkA phosphorylation inhibition).
On to `COCCN1C[C@@H](NC(=O)Nc2c(C)c(OCC(C)(C)O)nn2-c2ccccc2)[C@H](c2cnc(F)c(F)c2)O1` [Compound I-82], for which the IC50 was determined as 22 nM.

On to `COCC[C@@H]1C[C@@H](NC(=O)Nc2c(C)c(-c3cnc(C)nc3)nn2-c2ccccc2)[C@H](c2ccnc(F)c2)O1` (racemic) [Compound I-96], for which the IC50 amounted to 15 nM.

Consider `COCCN1C[C@@H](NC(=O)Nc2c(C)c(-c3cnc4c(c3)c(=O)n(C)n4C)nn2-c2ccccc2)[C@H](c2cnc(F)c(F)c2)O1` (racemic) [Compound I-79], for which the IC50 was 1.5 nM.

Turning to `COCCN1C[C@@H](NC(=O)Nc2c(C)c(-c3ccc(OC)nc3)nn2-c2ccccc2)[C@H](c2ccnc(F)c2)O1` [Compound I-509], the IC50 is 1.3 nM.
